Results from US10597388B2, “Pyridazinone herbicides” (FMC CORPORATION, priority 2014, dated 2020).

Tests used:
Experiment in all cases: Test D controlled growth environment herbicide test, pre- and postemergence
Format in all cases: in vivo
[1] = system: mustard, wild (wild mustard, Sinapis arvensis)
Text: (§1) Seeds of plant species selected from bluegrass (annual bluegrass, Poa annua), blackgrass (Alopecurus myosuroides), Canada thistle (Cirsium arvense), canarygrass (Phalaris minor), chickweed (common chickweed, Stellaria media), geranium, cutleaf (cutleaf geranium, Geranium dissectum), galium (catchweed bedstraw, Galium aparine), bromegrass, downy (downy bromegrass, Bromus tectorum), field poppy (Papaver rhoeas), field violet (Viola arvensis), foxtail, green (green foxtail, Setaria viridis), deadnettle (henbit deadnettle, Lamium amplexicaule), ryegrass, Italian (Italian ryegrass, Lolium multiflorum), kochia (Kochia scoparia), lambsquarters (Chenopodium album), oilseed rape (Brassica napus), pigweed (Amaranthus retroflexus), chamomile (scentless chamomile, Matricaria inodora), Russian thistle (Salsola kali), speedwell (bird's-eye speedwell, Veronica persica), barley, spring (spring barley, Hordeum vulgare), wheat, spring (spring wheat, Triticum aestivum), buckwheat, wild (wild buckwheat, Polygonum convolvulus), mustard, wild (wild mustard, Sinapis arvensis), oat, wild (wild oat, Avena fatua), radish, wild (wild radish, Raphanus raphanistrum), windgrass (Apera spica-venti), barley, winter (winter barley, Hordeum vulgare), and wheat, winter (winter wheat, Triticum aestivum) were planted into a silt loam soil and treated preemergence with test chemicals formulated in a non-phytotoxic solvent mixture which included a surfactant.
(§2) At the same time, these species were planted in pots containing Redi-Earth® planting medium (Scotts Company, 14111 Scottslawn Road, Marysville, Ohio 43041) comprising spaghnum peat moss, vermiculite, wetting agent and starter nutrients and treated with postemergence applications of the test chemicals formulated in the same manner. Plants ranged in height from 2 to 18 cm (1- to 4-leaf stage). Treated plants and controls were maintained in a controlled growth environment for 14 to 21 d after which time all species were compared to controls and visually evaluated. Plant response ratings, summarized in Table D, are based on a scale of 0 to 100 where 0 is no effect and 100 is complete control. A dash (-) response means no test result.

[2] = system: oilseed rape (Brassica napus)
Text: as §1, §2

[3] = system: windgrass (Apera spica-venti)
Text: as §1, §2

[4] = system: field violet (Viola arvensis)
Text: as §1, §2

[5] = system: deadnettle (henbit deadnettle, Lamium amplexicaule)
Text: as §1, §2

[6] = system: chamomile (scentless chamomile, Matricaria inodora)
Text: as §1, §2

[7] = system: barley, spring (spring barley, Hordeum vulgare)
Text: as §1, §2

[8] = system: wheat, spring (spring wheat, Triticum aestivum)
Text: as §1, §2

[9] = system: bromegrass, downy (downy bromegrass, Bromus tectorum)
Text: as §1, §2

[10] = system: radish, wild (wild radish, Raphanus raphanistrum)
Text: as §1, §2

[11] = system: lambsquarters (Chenopodium album)
Text: as §1, §2

[12] = system: speedwell (bird's-eye speedwell, Veronica persica)
Text: as §1, §2

[13] = system: oat, wild (wild oat, Avena fatua)
Text: as §1, §2

[14] = Postemergence, 31 g ai/ha, scale 0 to 100 (0 no effect, 100 complete control)
[15] = Postemergence, 125 g ai/ha, visual rating on scale 0 (no effect) to 100 (complete control), 14 to 21 d
[16] = Postemergence, 250 g ai/ha, scale 0 to 100 (0 no effect, 100 complete control)
[17] = Preemergence, 62 g ai/ha, scale 0 to 100 (0 no effect, 100 complete control)
[18] = Preemergence, 125 g ai/ha, scale 0 to 100 (0 no effect, 100 complete control)
[19] = Preemergence, 250 g ai/ha, scale 0 to 100 (0 no effect, 100 complete control)
[20] = postemergence, 62 g ai/ha, scale 0 to 100, 0 no effect, 100 complete control

## COc1nn(C)c(=O)c(-c2c(C)ccc3ccccc23)c1O [Compound 54]
[1]; [14]
  Mustard, Wild plant response rating: 100
[1]; [15]
  Plant response rating, Mustard, Wild: 100
[1]; [16]
  Plant response rating, Mustard, Wild: 100
[1]; Preemergence, 31 g ai/ha
  Plant response rating (scale of 0 to 100), Mustard, Wild: 50
[1]; [17]
  Plant response rating, Mustard, Wild: 100
[1]; [18]
  Plant response rating, Mustard, Wild: 100
[1]; [19]
  Plant response rating, Mustard, Wild: 100
[1]; [20]
  Plant response rating, Mustard, Wild: 100
[2]; [14]
  Oilseed Rape plant response rating: 75
[2]; [15]
  Plant response rating, Oilseed Rape: 100
[2]; [16]
  Plant response rating, Oilseed Rape: 100
[2]; Preemergence, 31 g ai/ha
  Plant response rating (scale of 0 to 100), Oilseed Rape: 15
[2]; [17]
  Plant response rating, Oilseed Rape: 50
[2]; [18]
  Plant response rating, Oilseed Rape: 85
[2]; [19]
  Plant response rating, Oilseed Rape: 100
[2]; [20]
  Plant response rating, Oilseed Rape: 95
[3]; [14]
  Windgrass plant response rating: 35
[3]; [15]
  Plant response rating, Windgrass: 70
[3]; [16]
  Plant response rating, Windgrass: 75
[3]; Preemergence, 31 g ai/ha
  Plant response rating (scale of 0 to 100), Windgrass: 0
[3]; [17]
  Plant response rating, Windgrass: 50
[3]; [18]
  Plant response rating, Windgrass: 70
[3]; [19]
  Plant response rating, Windgrass: 95
[3]; [20]
  Plant response rating, Windgrass: 45
[4]; [14]
  Field Violet plant response rating: 85
[4]; [15]
  Plant response rating, Field Violet: 95
[4]; [16]
  Plant response rating, Field Violet: 90
[4]; Preemergence, 31 g ai/ha
  Plant response rating (scale of 0 to 100), Field Violet: 25
[4]; [17]
  Plant response rating, Field Violet: 35
[4]; [18]
  Plant response rating, Field Violet: 70
[4]; [19]
  Plant response rating, Field Violet: 95
[4]; [20]
  Plant response rating, Field Violet: 75
[5]; [14]
  Deadnettle plant response rating: 100
[5]; [15]
  Plant response rating, Deadnettle: 100
[5]; [16]
  Plant response rating, Deadnettle: 100
[5]; Preemergence, 31 g ai/ha
  Plant response rating (scale of 0 to 100), Deadnettle: 0
[5]; [17]
  Plant response rating, Deadnettle: 60
[5]; [18]
  Plant response rating, Deadnettle: 70
[5]; [19]
  Plant response rating, Deadnettle: 95
[5]; [20]
  Plant response rating, Deadnettle: 100
[6]; [14]
  Chamomile plant response rating: 90
[6]; [15]
  Plant response rating, Chamomile: 100
[6]; [16]
  Plant response rating, Chamomile: 100
[6]; [20]
  Plant response rating, Chamomile: 100
[7]; [14]
  Barley, Spring plant response rating: 0
[7]; [15]
  Plant response rating, Barley, Spring: 0
[7]; [16]
  Plant response rating, Barley, Spring: 10
[7]; Preemergence, 31 g ai/ha
  Plant response rating (scale of 0 to 100), Barley, Spring: 0
[7]; [17]
  Plant response rating, Barley, Spring: 0
[7]; [18]
  Plant response rating, Barley, Spring: 0
[7]; [19]
  Plant response rating, Barley, Spring: 5
[7]; [20]
  Plant response rating, Barley, Spring: 0
[8]; [14]
  Wheat, Spring plant response rating: 0
[8]; [15]
  Plant response rating, Wheat, Spring: 15
[8]; [16]
  Plant response rating, Wheat, Spring: 25
[8]; Preemergence, 31 g ai/ha
  Plant response rating (scale of 0 to 100), Wheat, Spring: 0
[8]; [17]
  Plant response rating, Wheat, Spring: 0
[8]; [18]
  Plant response rating, Wheat, Spring: 0
[8]; [19]
  Plant response rating, Wheat, Spring: 45
[8]; [20]
  Plant response rating, Wheat, Spring: 0
[9]; [14]
  Bromegrass, Downy plant response rating: 10
[9]; [15]
  Plant response rating, Bromegrass, Downy: 55
[9]; [16]
  Plant response rating, Bromegrass, Downy: 75
[9]; Preemergence, 31 g ai/ha
  Plant response rating (scale of 0 to 100), Bromegrass, Downy: 0
[9]; [17]
  Plant response rating, Bromegrass, Downy: 15
[9]; [18]
  Plant response rating, Bromegrass, Downy: 15
[9]; [19]
  Plant response rating, Bromegrass, Downy: 40
[9]; [20]
  Plant response rating, Bromegrass, Downy: 55
[10]; [14]
  Radish, Wild plant response rating: 80
[10]; [15]
  Plant response rating, Radish, Wild: 100
[10]; [16]
  Plant response rating, Radish, Wild: 100
[10]; Preemergence, 31 g ai/ha
  Plant response rating (scale of 0 to 100), Radish, Wild: 25
[10]; [17]
  Plant response rating, Radish, Wild: 100
[10]; [18]
  Plant response rating, Radish, Wild: 100
[10]; [19]
  Plant response rating, Radish, Wild: 100
[10]; [20]
  Plant response rating, Radish, Wild: 100
[11]; [14]
  Lambsquarters plant response rating: 95
[11]; [15]
  Plant response rating, Lambsquarters: 95
[11]; [16]
  Plant response rating, Lambsquarters: 100
[11]; Preemergence, 31 g ai/ha
  Plant response rating (scale of 0 to 100), Lambsquarters: 65
[11]; [17]
  Plant response rating, Lambsquarters: 65
[11]; [18]
  Plant response rating, Lambsquarters: 95
[11]; [19]
  Plant response rating, Lambsquarters: 95
[11]; [20]
  Plant response rating, Lambsquarters: 95
[12]; [14]
  Speedwell plant response rating: 75
[12]; [15]
  Plant response rating, Speedwell: 100
[12]; [16]
  Plant response rating, Speedwell: 100
[12]; Preemergence, 31 g ai/ha
  Plant response rating (scale of 0 to 100), Speedwell: 100
[12]; [17]
  Plant response rating, Speedwell: 95
[12]; [18]
  Plant response rating, Speedwell: 100
[12]; [19]
  Plant response rating, Speedwell: 100
[12]; [20]
  Plant response rating, Speedwell: 100
[13]; [14]
  Oat, Wild plant response rating: 75
[13]; [15]
  Plant response rating, Oat, Wild: 90
[13]; [16]
  Plant response rating, Oat, Wild: 90
[13]; Preemergence, 31 g ai/ha
  Plant response rating (scale of 0 to 100), Oat, Wild: 75
[13]; [17]
  Plant response rating, Oat, Wild: 75
[13]; [18]
  Plant response rating, Oat, Wild: 85
[13]; [19]
  Plant response rating, Oat, Wild: 95
[13]; [20]
  Plant response rating, Oat, Wild: 85
